Like-named read-outs stand apart in the source and are kept apart here.

The values below come from patent publication US20230107216A1, “PANTETHEINE DERIVATIVES AND USES THEREOF” (Comet Therapeutics, Inc., priority 2018, published 2023).

For data set [1], the system named is primary fibroblasts (healthy controls and PA, MMA, BCKDK, PDH, VLCAD, LS, PC, GA, VLCFA, KSS, FXN, HD). Briefly: Measurement of ROS (H2DCFDA) in primary fibroblasts. Conditions: Homo sapiens, Fibroblast, BCKD GM00649, procedure Example 812, Assay Condition C. The data set is classed as cell-based, human. A digest of the protocol:
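Patient and healthy-control primary fibroblasts switched to supplemented DMEM 24 h before assay, then treated with compound (10 μM) plus H2DCFDA (22 μM) for 2 h (PA, MMA lines) or 24 h (other lines). Kinetic fluorescence at 492/527 nm over 60 min; only live cells analysed.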

A short description of data set [2]: Treg differentiation assay. The data set is classed as cell-based. To be noted: human. How it is done:
Naïve CD4+ T cells (Stemcell, 17555) were isolated from PBMC and placed (20,000 cells/well) in 10 μg/ml anti-CD3 antibody (eBioscience, 16-0037-85) pre-coated 96-well flat bottom plate (Eppendorf, Cat #30730119) for 3 hours at 37° C. in an X-VIVO15 medium (Lonza, 04-418Q) supplemented with 15% FBS (Hyclone SV30087.03) and 1% Penicillin-Streptomycin (Hyclone, SV30010). Treg induction cocktail was added including 2 μg/ml anti-CD28 (eBioscience 16-0289-85), 20 ng/ml IL-2 (R&D, 202-IL-050) 0.2 ng/ml TGF-β1 (Peprotech, 100-21-50) in the presence of the compounds at 10 and 50 μM dose. On day 3 half of the medium, was refreshed with Treg differentiation cocktail as above and compounds (10 and 50 μM). On day 5 cells were collected and the following staining were performed: live/dead (Invitrogen, L34963), and Foxp3/Transcription Factor Staining Buffer Set (EBioscience, 00-5523-00), mouse anti-human FoxP3 (BD, 560046) or mouse IgG1, κIsotype control (BD, 555749) and analyzed by FACS (BD LSR Fortessa, 853492).

Another data set concerns HepG2 cells. Briefly: MitoBiogenesis In-Cell ELISA (COX-I, SDH-A). The data set is classed as cell-based. To be noted: Homo sapiens, 168 h, 10 uM, 7 days, read-out: % increase in Mitochondrial Biogenesis. A digest of the protocol:
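HepG2 cells were plated, adhered overnight at 37 °C/5% CO2, then exposed to test compounds (50–10 μM) in DMEM with 10% FBS for 7 days without media change; vehicle was 0.2% DMSO. COX-I and SDH-A were measured by in-cell ELISA and reported as signal relative to vehicle, n=2.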
For orientation: ELISA stands for enzyme-linked immunosorbent assay.

Data set [3] concerns monocyte-derived M1 macrophages. Briefly: M1 differentiation assay (macrophage TNFα, IL6, IL10 ELISA, FACS). The data set is classed as cell-based, human. To be noted: Homo sapiens, Macrophage, 10 uM. A digest of the protocol: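 CD14+ human blood monocytes (100,000) differentiated 6 days with 10 ng/ml GM-CSF plus compound at 10 or 50 μM, refreshed days 2 and 4. Matured 24 h with GM-CSF, IFNγ, LPS plus compound. Supernatant TNFα, IL6, IL10 by ELISA; FACS M1 phenotype CD86+CD68+CD163−.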

Data set [4] in a line: Deuterated and endogenous Coenzyme A in tissues after single and multiple dosing to vitamin B5-deprived mice (LC-MS/MS). The data set is classed as in vivo, C57BL/6N mice. As for the experimental part: Example 22: Determining Deuterated and Endogenous Coenzyme A in Various Tissues after Single and Multiple Dosing of Compound 1216 to Vitamin B5-Deprived Male C57BL/6N Mice
C57BL6/J male mice were placed on a Vitamin B5 deprived diet for 2 weeks prior to the start of dosing with Compound 1216, single or multiple dosing with either IV or oral administration. […]
The test item and vehicle were administered to the appropriate animals via intravenous (slow bolus) injection to the tail vein (Groups 1-5). In Group 6 test item was administered via oral gavage. The dose volume for each animal was based on the most recent body weight measurement. The animals were temporarily restrained for dose administration and were not sedated. The dose was given using a disposable needle and syringe (intravenous administration) or a stainless steel tube (oral gavage). The dosing formulations were stirred continuously during dose administration, when possible.
Tissue samples were directly removed after sacrifice, together with plasma and CSF and immediately snap frozen in liquid nitrogen and stored at −80° C. […].
Ultrapure water (UPW) was added to the tissue in a 3:1 ratio (e.g. 1 gr tissue+3 ml UPR) and homogenized for 2 minutes at 30/s with 3 beads using a bead mill. Samples were placed on ice and 200 mg weighed in a 2 ml PP tube. 20 μL 50 mM TCEP was added to the sample and vortexed and placed on ice water for 30 minutes. Subsequently 100 μL Perchloric acid was added and the samples was again vortexed and centrifuged for 5 min at 13000 ref (4° C.). Then 225 μL of the supernatant was transferred to a 1.5 mL PP tube. Then 50 μL 3M KOH was added, vortexed and incubated for 2h on ice water. Then 50 μL 3M HCl was added and again vortexed and centrifuged for 5 min at 13000 rcf (4° C.). 100 μL of the supernatant was transferred to a 1.5 mL PP tube, 150 μL UPW was added, and the samples was again vortexed. Then 200 μL of the supernatant was transferred to a 96-wells plate and the samples were ready for measurement. […]

Consider `C/C=C/C(=O)SCCNC(=O)CCNC(=O)[C@H](O)C(C)(C)CO` [Compound 35, (R)—S-(2-(3-(2,4-dihydroxy-3,3-dimethylbutanamido)propanamido)ethyl) (E)-but-2-enethioate], for which the inhibition at 10 µM in data set [1] (read-out: Decreased ROS by at least 10%) is at least 10%; in data set [1] (read-out: Decreased ROS by at least 30%) it was at least 30%; in data set [3] (read-out: % decrease in Macrophage IL-6 Secretion), at least 30%; in data set [3] (read-out: % decrease in Macrophage TNFα Secretion) it was at least 30%. In data set [2], this molecule had a percent decrease in viable Treg cells at 5 days, 50 µM of at least 30%. Also, the activation at 10 µM was over 5% with HepG2 cells and at least 30% in data set [3] (read-out: % Increase in IL-10 Secretion).

With `[2H]C([2H])([2H])C(COP(=O)(O)O)(C(O)C(=O)NCCC(=O)NCCSC(C)=O)C([2H])([2H])[2H]` (stereo not shown) [Compound 1216, S-acetyl-4′-phosphopantetheine-D6], in data set [4] (multiple IV doses), the “Levels of labeled CoA in liver and kidney” value was “high levels of labeled CoA”. In data set [4] (multiple IV doses, up to 24 hours after last dose), the “Presence of deuterated (labelled) CoA in three brain regions and other organs over time” value is recorded as “prolonged presence of deuterated (labelled) CoA”. For the same molecule, the “Deuterated (labelled) CoA in cerebellum, cerebrum, remainder of the brain, liver, heart and kidney” value in data set [4] (multiple doses (either 3 or 5, IV and oral) of 102.8 mg/kg every 12 hours, vitamin B5-deprived mice, 15 minutes after last dose) is recorded as “results in deuterated (labelled) CoA”.
